Experimental findings from patent publication US11780840B2 (Incyte Corporation, priority 2020, dated 2023) are described below.

Assay [1] deals with T1, catalytic domain (JH1, amino acids 826-1132) of human JAK2 (Homo sapiens, UniProt O60674).
T1 construct: catalytic domain (JH1, amino acids 826-1132) of human JAK2; FLAG (N); purchased Carna Biosciences 08-445-20N; host or cells: baculovirus expression system
The assay is described as follows: JAK2 LanthaScreen JH1 Binding Assay. The note with it: JAK2 JH1 (1.5 nM), 50 nM fluorescent JAK2-JH1 tracer, 2 hours at 25° C.; read-out: JH1 BIND. The gist of the method:
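FLAG-tagged, biotinylated JAK2 JH1 (aa 826-1132, baculovirus-expressed; 1.5 nM) incubated 2 h at 25° C with compounds, 50 nM fluorescent tracer and 0.5 nM Streptavidin-Tb in Tris pH 7.5 buffer with MgCl2, Brij-35, BSA, EGTA, glycerol, DTT. Nonspecific binding defined with 2 mM ATP; TR-FRET IC50 from four-parameter fit.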
(In general: In TR-FRET formats the signal depends on donor and acceptor labels being close together.)

In assay [2] the target is T2, pseudo-kinase domain (JH2, amino-acids 536-812 with 3 surface mutations W659A, W777A, F794H) of human Wild Type JAK2 (Homo sapiens, UniProt O60674, F794H/W659A/W777A).
T2 construct: pseudo-kinase domain (JH2, amino-acids 536-812 with 3 surface mutations W659A, W777A, F794H); His (C); Avi (biotinylated) (C); purchased BPS Bioscience 79463; host or cells: baculovirus expression system
The assay is described as follows: JAK2 LanthaScreen JH2-WT Binding Assay. The note with it: JAK2 JH2-WT (0.145 nM), 50 nM Fluorescent JAK2-JH2 Tracer, 1 hour at 25° C.; read-out: JH2 BIND WT. The method, boiled down: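 Biotinylated His-Avi-tagged JAK2 JH2 (0.145 nM), baculovirus-expressed, incubated with compounds, 50 nM fluorescent JH2 tracer and 0.25 nM streptavidin-Tb, 1 h at 25° C in pH 7.5 Tris buffer with MgCl2 and DTT. Non-specific binding defined with 2 mM ATP. TR-FRET read; IC50 from four-parameter fit.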

In assay [3] the target is T3, pseudo-kinase domain (JH2, amino-acids 536-812 with 3 surface mutations W659A, W777A, F794H) of human V617F mutant JAK2 (Homo sapiens, UniProt O60674, F794H/V617F/W659A/W777A).
T3 construct: pseudo-kinase domain (JH2, amino-acids 536-812 with 3 surface mutations W659A, W777A, F794H); His (C); Avi (biotinylated) (C); purchased BPS Bioscience 79498; host or cells: baculovirus expression system
The assay is described as follows: JAK2 LanthaScreen JH2-V617F Binding Assay. The note with it: JAK2 JH2-V617F (0.26 nM), 50 nM Fluorescent JAK2-JH2 Tracer, 1 hour at 25° C.; read-out: JH2 BIND V617F. The method, boiled down:
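Biotinylated His-Avi-tagged construct, baculovirus-expressed, at 0.26 nM; compounds competed against 50 nM fluorescent JH2 tracer with 0.25 nM streptavidin-Tb in Tris pH 7.5 buffer. Non-specific binding defined with 2 mM ATP. Read after 1 h at 25° C by TR-FRET; IC50 from four-parameter fit.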

T2 sequence (O60674 536-812 W659A/W777A/F794H): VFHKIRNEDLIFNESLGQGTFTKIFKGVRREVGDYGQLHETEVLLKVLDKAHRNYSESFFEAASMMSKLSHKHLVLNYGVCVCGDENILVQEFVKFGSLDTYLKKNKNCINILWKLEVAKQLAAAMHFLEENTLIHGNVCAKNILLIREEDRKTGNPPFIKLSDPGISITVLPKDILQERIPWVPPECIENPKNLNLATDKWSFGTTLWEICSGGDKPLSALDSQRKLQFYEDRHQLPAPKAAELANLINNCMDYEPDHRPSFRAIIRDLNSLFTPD
T1 sequence (O60674 826-1132): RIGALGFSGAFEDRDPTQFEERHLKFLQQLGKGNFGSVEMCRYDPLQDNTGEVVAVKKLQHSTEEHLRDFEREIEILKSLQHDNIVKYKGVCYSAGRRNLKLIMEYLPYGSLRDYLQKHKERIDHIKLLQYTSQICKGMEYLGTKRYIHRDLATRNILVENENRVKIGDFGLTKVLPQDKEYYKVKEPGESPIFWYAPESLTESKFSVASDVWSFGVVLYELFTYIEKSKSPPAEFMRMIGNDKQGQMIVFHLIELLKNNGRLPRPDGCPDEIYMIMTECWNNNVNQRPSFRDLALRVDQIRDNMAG
T3 sequence (O60674 536-812 V617F/W659A/W777A/F794H): as the sequence (O60674 536-812 W659A/W777A/F794H) above, with V82F counted along it

`CC(C)n1c(=O)n(C)c2cnc3[nH]c(-c4ccc(CN5CCC(S(C)(=O)=O)CC5)cc4)c(-c4ccc(C#N)cc4)c3c21` [Example 25, 4-(1-Isopropyl-3-methyl-7-(4-((4-(methylsulfonyl)piperidin-1-yl)methyl)phenyl)-2-oxo-1,2,3,6-tetrahydroimidazo [4,5-d]pyrrolo[2,3-b]pyridin-8-yl)benzonitrile]: the IC50 in assay [1] was 500 to 1000 nM; in assay [2] it was at most 10 nM; in assay [3] it was at most 10 nM.
`Cn1cc(-c2[nH]c3ncc4c(c3c2-c2ccc3c(cnn3C)c2)n(C2CCOCC2)c(=O)n4C)cn1` [Example 48, 3-Methyl-8-(1-methyl-1H-indazol-5-yl)-7-(1-methyl-1H-pyrazol-4-yl)-1-(tetrahydro-2H-pyran-4-yl)-3,6-dihydroimidazo[4,5-d]pyrrolo[2,3-b]pyridin-2(1H)-one]: the IC50 in assay [1] is over 1000 nM; in assay [2] it was at most 10 nM; in assay [3] it was at most 10 nM.
With `CS(=O)(=O)C1CCN(Cc2ccc(-c3cc4c(ncc5[nH]c(=O)n(-c6ccccc6)c54)[nH]3)cc2)CC1` [Example 4, 7-(4-((4-(Methylsulfonyl)piperidin-1-yl)methyl)phenyl)-1-phenyl-3,6-dihydroimidazo [4,5-d]pyrrolo[2,3-b]pyridin-2(1H)-one], the IC50 was 10 to 100 nM in assay [1], 100 to 500 nM in assay [2] and 100 to 500 nM in assay [3].
`COc1nn(C)cc1-c1[nH]c2ncc3c(c2c1-c1ccc2c(cnn2C)c1)n(C1CCOCC1)c(=O)n3C` [Example 91, 7-(3-methoxy-1-methyl-1H-pyrazol-4-yl)-3-methyl-8-(1-methyl-1H-indazol-5-yl)-1-(tetrahydro-2H-pyran-4-yl)-3,6-dihydroimidazo[4,5-d]pyrrolo[2,3-b]pyridin-2(1H)-one]: the IC50 in assay [1] was over 1000 nM; in assay [2], at most 10 nM; in assay [3] it was at most 10 nM.
For the molecule `Cn1cc(-c2[nH]c3ncc4c(c3c2-c2ccc3c(cnn3C)c2)n(C2CCN(C3(CC#N)CCC3)CC2)c(=O)n4C)cn1` [Example 111, 2-(1-(4-(3-Methyl-8-(1-methyl-1H-indazol-5-yl)-7-(1-methyl-1H-pyrazol-4-yl)-2-oxo-3,6-dihydroimidazo[4,5-d]pyrrolo[2,3-b]pyridin-1(2H)-yl)piperidin-1-yl)cyclobutyl)acetonitrile], the IC50 was 500 to 1000 nM in assay [1], at most 10 nM in assay [2] and at most 10 nM in assay [3].
On to `COc1ccc(-c2[nH]c3ncc4c(c3c2-c2ccc3c(cnn3C)c2)n(C(C)C)c(=O)n4C)cn1` [Example 62, 1-Isopropyl-7-(6-methoxypyridin-3-yl)-3-methyl-8-(1-methyl-1H-indazol-5-yl)-3,6-dihydroimidazo[4,5-d]pyrrolo[2,3-b]pyridin-2(1H)-one], for which the results for the IC50 in assay [1], in assay [2] and in assay [3] were over 1000 nM, 10 to 100 nM and 10 to 100 nM, respectively.
Turning to `CC(=O)N1CCN(c2ccc(-c3[nH]c4ncc5c(c4c3-c3ccc(C#N)cc3)n(C(C)C)c(=O)n5C)cc2)CC1` [Example 37, 4-(7-(4-(4-Acetylpiperazin-1-yl)phenyl)-1-isopropyl-3-methyl-2-oxo-1,2,3,6-tetrahydroimidazo [4,5-d]pyrrolo[2,3-b]pyridin-8-yl) benzonitrile], the figures for the IC50 in assay [1], in assay [2] and in assay [3] were over 1000 nM, at most 10 nM and at most 10 nM, respectively.
As to `Cn1c(=O)n(-c2ccc3occc3c2)c2c3cc(-c4ccc(CN5CCC(S(C)(=O)=O)CC5)cc4)[nH]c3ncc21` [Example 3, 1-(Benzofuran-5-yl)-3-methyl-7-(4-((4-(methylsulfonyl)piperidin-1-yl)methyl)phenyl)-3,6-dihydroimidazo[4,5-d]pyrrolo[2,3-b]pyridin-2(1H)-one], the IC50 in assay [1], in assay [2] and in assay [3] was 10 to 100 nM in each case.
`COC1CC=C(c2c(-c3ccc(CN4CCC(S(C)(=O)=O)CC4)cc3)[nH]c3ncc4c(c23)n(C(C)(C)C)c(=O)n4C)CC1` (stereo not drawn) [Example 24, 1-(tert-Butyl)-8-(4-methoxycyclohex-1-en-1-yl)-3-methyl-7-(4-((4-(methylsulfonyl)piperidin-1-yl)methyl)phenyl)-3,6-dihydroimidazo[4,5-d]pyrrolo[2,3-b] pyridin-2(1H)-one]: the values for the IC50 in assay [1], in assay [2] and in assay [3] were 500 to 1000 nM, at most 10 nM and at most 10 nM, respectively.
For the molecule `Cn1c(=O)n(C2CCCOC2)c2c3cc(-c4ccc(CN5CCC(S(C)(=O)=O)CC5)cc4)[nH]c3ncc21` (stereo not drawn) [Example 15, 3-Methyl-7-(4-((4-(methylsulfonyl)piperidin-1-yl)methyl)phenyl)-1-(tetrahydro-2H-pyran-3-yl)-3,6-dihydroimidazo[4,5-d]pyrrolo[2,3-b]pyridin-2(1H)-one], the IC50 fell in the range of 10 to 100 nM in assay [1], 100 to 500 nM in assay [2] and 100 to 500 nM in assay [3].
With `COCCn1cc(-c2[nH]c3ncc4c(c3c2-c2ccc3c(cnn3C)c2)n(C2CCCC2)c(=O)n4C)cn1` [Example 54, 1-Cyclopentyl-7-(1-(2-methoxyethyl)-1H-pyrazol-4-yl)-3-methyl-8-(1-methyl-1H-indazol-5-yl)-3,6-dihydroimidazo[4,5-d]pyrrolo[2,3-b] pyridin-2(1H)-one], the IC50 in assay [1] is 100 to 500 nM; in assay [2], at most 10 nM; in assay [3], at most 10 nM.
Take `CC(C)n1c(=O)n(C)c2cnc3[nH]c(-c4cnn(Cc5ccncc5)c4)c(-c4ccc(C#N)cc4)c3c21` [Example 36, 4-(1-Isopropyl-3-methyl-2-oxo-7-(1-(pyridin-4-ylmethyl)-1H-pyrazol-4-yl)-1,2,3,6-tetrahydroimidazo [4,5-d]pyrrolo[2,3-b]pyridin-8-yl)benzonitrile]: the figures for the IC50 in assay [1], in assay [2] and in assay [3] were 100 to 500 nM, at most 10 nM and at most 10 nM, respectively.
With `COc1nn(C)cc1-c1[nH]c2ncc3c(c2c1-c1ccc2c(cnn2C)c1)n([C@H]1CC[C@@H](CC#N)CC1)c(=O)n3C` [Example 108, 2-((1S,4S)-4-(7-(3-methoxy-1-methyl-1H-pyrazol-4-yl)-3-methyl-8-(1-methyl-1H-indazol-5-yl)-2-oxo-3,6-dihydroimidazo[4,5-d]pyrrolo[2,3-b]pyridin-1(2H)-yl)cyclohexyl)acetonitrile], the IC50 is over 1000 nM in assay [1], at most 10 nM in assay [2] and at most 10 nM in assay [3].
On to `CC(C)n1c(=O)n(C)c2cnc3[nH]c(-c4cnn(CC(C)(C)O)c4)c(-c4cc5cnc(N6CCNCC6)cc5s4)c3c21` [Example 80, 7-(1-(2-Hydroxy-2-methylpropyl)-1H-pyrazol-4-yl)-1-isopropyl-3-methyl-8-(6-(piperazin-1-yl)thieno[3,2-c]pyridin-2-yl)-3,6-dihydroimidazo[4,5-d]pyrrolo[2,3-b]pyridin-2(1H)-one], for which the IC50 in assay [1] is 100 to 500 nM; in assay [2], at most 10 nM; in assay [3], at most 10 nM.
For `CN(C)C(=O)c1ccc(-c2[nH]c3ncc4c(c3c2-c2ccc3c(cnn3C)c2)n(C2CCCC2)c(=O)n4C)cc1` [Example 89, 4-(1-Cyclopentyl-3-methyl-8-(1-methyl-1H-indazol-5-yl)-2-oxo-1,2,3,6-tetrahydroimidazo [4,5-d]pyrrolo[2,3-b]pyridin-7-yl)-N,N-dimethylbenzamide], the IC50 in assay [1] was 500 to 1000 nM; in assay [2], at most 10 nM; in assay [3], at most 10 nM.
With `CC(C)Oc1ccc(-c2[nH]c3ncc4c(c3c2-c2ccc3c(cnn3C)c2)n(C2CCCC2)c(=O)n4C)cn1` [Example 65, 1-Cyclopentyl-7-(6-isopropoxypyridin-3-yl)-3-methyl-8-(1-methyl-1H-indazol-5-yl)-3,6-dihydroimidazo[4,5-d]pyrrolo[2,3-b]pyridin-2(1H)-one], the IC50 was over 1000 nM in assay [1], 10 to 100 nM in assay [2] and 10 to 100 nM in assay [3].
On to `COC(=O)N[C@H]1C[C@@H](n2c(=O)n(C)c3cnc4[nH]c(-c5cnn(C)c5)c(-c5ccc6c(cnn6C)c5)c4c32)C1` [Example 104, Methyl ((1S,3S)-3-(3-methyl-8-(1-methyl-1H-indazol-5-yl)-7-(1-methyl-1H-pyrazol-4-yl)-2-oxo-3,6-dihydroimidazo[4,5-d]pyrrolo[2,3-b]pyridin-1(2H)-yl)cyclobutyl)carbamate], for which the IC50 in assay [1] is 500 to 1000 nM; in assay [2], at most 10 nM; in assay [3], at most 10 nM.
